Measurements published in patent US20190032014A1, “USING MICROBIOTA METABOLITES TO DIFFERENTIATE NAÏVE T-CELLS AND RELATED METHODS TO INDUCE OR PREVENT INFLAMMATORY CONDITIONS” (THE TEXAS A&M UNIVERSITY SYSTEM, priority 2016, published 2019).
Entries after “also recorded” stand apart in the source; their conditions may differ.

Columns and labels:
[1] = test system: wild-type or AhR KO T cells; assay: T cell differentiation in wild-type vs AhR KO T cells; assay type: cell-based, mice
Protocol: The aryl hydrocarbon receptor (AhR) is implicated in the differentiation of Treg and Th17 cells. The role of AhR was assessed with respect to indole's effect on Treg augmentation. Wild-type and AhR KO naïve T-cells were conditioned with increasing amounts of indole and then assessed for % of FoxP3 expression. […] Additionally, the role of AhR was assessed with respect to indole's effect on Th17 inhibition.
The AhR knockout was further investigated for iTreg homing markers, CD62L and α4β7, as described above.
Next, the AhR knockout was further investigated for the impact of AhR on 5-HI-mediated T cell differentiation.

IL-6 receptor / pSTAT3 = assay: IL-6 receptor levels and STAT3 activity; assay type: cell-based; details: vs control
Protocol: Indole and 5-HI were assessed for impact on TGF-β receptor expression and SMAD2/3 activity. […] Indole and 5-HI were also assessed for impact on IL-6 receptor levels and subsequent STAT3 activity.

CD4+ CD25− naïve T cells [2] = assay: In vitro naïve T cell differentiation, Th17-skew (IL-17+ by FACS); assay type: cell-based, C57BL/6 mice; details: low and high titrations of IL-6
[3] = test system: naïve T cells obtained from humans; assay: Skewing of naïve T cells obtained from humans; assay type: cell-based
CD4+ CD25− naïve T cells [4] = assay: In vitro naïve T cell differentiation, Treg-skew (FoxP3+ by FACS); assay type: cell-based, C57BL/6 mice; details: Treg skewing conditions, vs DMF control
Protocol: (§1) Mesenteric lymph node (MLN) and spleen are harvested from WT or FOXP3^EGFP C57Bl/6 mice and homogenized. Spleen tissue is subjected to red blood cell lysis and pooled into a single cell suspension for counting. Counted cells are resuspended in sterile FACS buffer (PBS++ with 05% bovine serum albumin) at a concentration of ˜5×10^7 cells/mL and stained for 45 minutes at 4° C. with anti-CD4 and anti-CD25 fluorophore-conjugated monoclonal antibodies (mAb). After two washes, the stained cells are resuspended at ˜6×10^6 cells/mL in FACS buffer and immediately sorted. […] TDMMs are solubilized in DMF at 2 M and used at desired concentrations (e.g., 0.01, 0.1, 0.5 and 1.0 mM) in growth media; DMF in growth media (0.05%) is used as a solvent control.
(§2) The % of Treg or Th17 cells are determined based on the expression of signature transcription factors, FoxP3 and Rorγt, respectively. In addition, signature cytokine markers for Treg and Th17, TGFβ or IL-17, respectively, among others are measured using intracellular cytokine staining. Since it is possible that a cell could be positive for FoxP3 and still express some IL-17, the final % of Tregs are determined as the cell population that is FoxP3+TGFβ+ Rorγt-IL-17−. Similarly, the % of Th17 cells are determined as the population that is FoxP3-TGFβ− Rorγt+IL-17+.
(§3) CD4+ CD25− T cells were isolated to high purity (>98%) from the pooled spleen and mesenteric lymph nodes of C57BL/6 mice (Jackson Labs) with a BD FACS Aria II flow cytometer. Fc Block (BD), αCD4-efluor450 (eBioscience clone GK1.5) and αCD25-PECy7 (eBioscience clone PC61.5) antibodies were used for staining before sorting.
(§4) For Th1-skew: 5 ng/mL IL-12 (Peprotech cat. #210-12) and 10 µg/mL αIL-4 (BioXCell clone 11B11) were added to culture. For Th2-skew: 10 ng/mL IL-4 (Peprotech) and 10 μg/mL αIFN-γ (BioXCell clone R4-6A2) were added to culture. For Th17-skew: 10 ng/mL IL-6 (Peprotech), 5 ng/mL IL-23 (R&D), 0.5 ng/mL TGF-β (Peprotech), 10 μg/mL al-4 (BioXCell clone 11B11), and 10 μg/mL αIFN-γ (BioXCell clone R4-6A2) were added to culture. For Treg-skew: 2 ng/mL TGF-β (Peprotech) and 100 U/mL IL-2 (Roche) were added to culture. Sodium Propionate, sodium acetate, sodium butyrate and sodium chloride (all from Sigma-Aldrich) were solubilized in media and added to culture. Indole was solubilized in DMF (both from Sigma-Aldrich) at 2M and brought to final concentration in media. MGCD0103 (Selleck Chemicals) was solubilized in DMF at 2 mM and brought to final concentration in media. A 0.05% DMF solvent control was used for all experiments.

Th17 transfer colitis = Th17 transfer colitis murine model; assay type: in vivo, Rag-null mice
Protocol: Finally, the presentation describes a study of the effects of an indole-induced iTreg skew on the course of colitis in a Th17 transfer colitis murine model. […] Briefly, naïve T-cells (CD4+CD25−) were cultured in vitro with cytokines to skew function towards a Th17 phenotype, in the presence of indole or 5-HI, or not. The skewed cultures were transferred to Rag-null mice (lack T- and B-lymphocytes); control mice received no T-cells. Mice were monitored for weight loss (as a measure of inflammation) over several weeks and assessed at indicated timepoints for T-cell phenotype.
The body weight of the mice was monitored from the time of cell transfer to the end point of day 49. […] Next, the Treg, Th17, and Th1 differentiation was assessed in cells obtained from the mesenteric lymph nodes (MLN) of mice administered directly with indole, 5-HI and control. These cells were determined/assayed by FACS for phenotype directly ex vivo from mice that were treated as in FIG. 28.

CD4+ CD25− naïve T cells [5] = assay: In vitro naïve T cell differentiation, Th1-skew (IFN-γ+); assay type: cell-based, C57BL/6 mice; details: Th1 skewing conditions; vs solvent control; listed as 5-HI
Protocol: When naïve CD4+ CD25− cells were cultured 72 hours in αCD3/28 coated wells with Th0-, Th1- or Th2-skew cytokines and indole or solvent control, followed by stimulation with PMA, Ionomycin and Golgi Plug for the last 5 hours of culture, no effect on the % of Th1 and Th2 cells was observed (in contrast to the significant effect that indole has on Treg and Th17 cells; see FIGS. 2A and 2B).
as §3, §4

CD4+ CD25− naïve T cells [6] = assay: In vitro naïve T cell differentiation, Th17-skew (IL-17+ by FACS); assay type: cell-based, C57BL/6 mice; details: Th17 skewing conditions, vs DMF control
Protocol: as §1, §2, §3, §4

naïve T cells = details: Arpaia et al. 2013; cited from earlier work
[7] = MLN, D15 and D45, by the end point

Question: For Oc1ccc2[nH]ccc2c1 [5-hydroxyindole], which “% IL-17+ in wild-type vs AhR KO T cells” value [1] is on record?
Answer: Its value is “significantly increased over wild-type cells”.

Question: What about the “% of IFN-γ+ T cells in AhR KO vs wild-type T cells” value ([1]; Th1 skew) of the same molecule?
Answer: Its value is “not significantly different than in wild-type cells”.

Question: What about the “FoxP3+ % in wild-type vs AhR KO T cells” value ([1]; increasing amounts of test substance) of the same molecule?
Answer: The value was “decreases similarly in wild-type and AhR KO cells”.

Question: What about the “% pSTAT3+ cells / IL-6 induced stat3” value (IL-6 receptor / pSTAT3) of the same molecule?
Answer: The value was “augments the IL-6 induced stat3 expression”.

Question: What about the “% IL-17+ cells with titrations of IL-6” value (CD4+ CD25− naïve T cells [2]) of the same molecule?
Answer: Its value is “increased the % IL-17+ cells”.

Question: And the “skewing effects on Tregs and Th17 cells in human cells” value [3]?
Answer: The value was “recapitulated on naïve T cells obtained from humans”.

Question: What about the “effect on % FoxP3+ cells / Treg differentiation” value (CD4+ CD25− naïve T cells [4]) of the same molecule?
Answer: The value was “decreasing the Treg population”.

Question: And the “effect on % FoxP3+ cells / Treg differentiation” value (CD4+ CD25− naïve T cells [4]; listed as 5-HI)?
Answer: Its value is “inhibits a Treg response; also recorded: strongly inhibits Treg differentiation; also recorded: decreased the % FoxP3+ cells”.

Question: What about the “Th1 differentiation in vivo (% INF-γ+ T cells, Th1/Treg balance, MLN)” value (Th17 transfer colitis; [7]) of the same molecule?
Answer: Its value is “increases the number of Th17 differentiation in vivo”.

Question: And the “Th17 differentiation in vivo (% IL-17+ T cells, Th17/Treg balance, MLN)” value (Th17 transfer colitis; [7])?
Answer: Its value is “increases the number of Th17 differentiation in vivo”.

Question: What about the “weight change (% from starting weight)” value (Th17 transfer colitis; mice receiving conditioned Th17 T cells, around day 43, end point day 49) of the same molecule?
Answer: The value was “declined precipitously”.

Question: What about the “Th17 transfer colitis in vivo (overall)” value (Th17 transfer colitis; mouse, in vivo) of the same molecule?
Answer: Its value is “exacerbates Th17 transfer colitis in vivo”.

Question: What about the “effect on % Th1 cells (IFN-γ+)” value (CD4+ CD25− naïve T cells [5]) of the same molecule?
Answer: Its value is “promotes Th1 and Th17 differentiation; also recorded: increase in % IFN-γ+ cells”.

Question: What about the “effect on % IL-17+ cells / Th17 differentiation” value (CD4+ CD25− naïve T cells [6]) of the same molecule?
Answer: The value was “increases Th17 cells”.

Question: And the “effect on % IL-17+ cells / Th17 differentiation” value (CD4+ CD25− naïve T cells [6]; listed as 5-HI)?
Answer: Its value is “pro-Th17 response; also recorded: promotes Th1 and Th17 differentiation; also recorded: significant increase in % IL-17+ cells”.

Question: With O=C(O)C(=O)Cc1c[nH]c2ccccc12 [Indole-3-pyruvate] as the molecule, how does the “effect on % FoxP3+ cells / Treg differentiation” value (CD4+ CD25− naïve T cells [4]) read?
Answer: Its value is “increasing Treg cells”.

Question: What about the “effect on % IL-17+ cells / Th17 differentiation” value (CD4+ CD25− naïve T cells [6]) of the same molecule?
Answer: The value was “modest (but significant) decrease in Th17”.

Question: What does the source list for CC(=O)O [acetate, reference compound]?
Answer: effect on % FoxP3+ cells / Treg differentiation (CD4+ CD25− naïve T cells [4]): no effect on Treg development; effect on % IL-17+ cells / Th17 differentiation (CD4+ CD25− naïve T cells [6]): increases Th17 development

Question: Which “effect on % FoxP3+ cells / Treg differentiation” value (CD4+ CD25− naïve T cells [4]) does the source give for CCC(=O)O [propionate, reference compound] here?
Answer: The value was “increases Treg and Th17 development”.

Question: What about the “effect on % IL-17+ cells / Th17 differentiation” value (CD4+ CD25− naïve T cells [6]) of the same molecule?
Answer: Its value is “increases Treg and Th17 development”.

Question: And the “differentiation of naïve T cells to Treg cells” value (naïve T cells)?
Answer: Its value is “promoted differentiation of naïve T cells to Treg cells”.
